Biological target: T1, GPR119 (Homo sapiens, UniProt Q8TDV5)
T1 sequence (Q8TDV5 1-335): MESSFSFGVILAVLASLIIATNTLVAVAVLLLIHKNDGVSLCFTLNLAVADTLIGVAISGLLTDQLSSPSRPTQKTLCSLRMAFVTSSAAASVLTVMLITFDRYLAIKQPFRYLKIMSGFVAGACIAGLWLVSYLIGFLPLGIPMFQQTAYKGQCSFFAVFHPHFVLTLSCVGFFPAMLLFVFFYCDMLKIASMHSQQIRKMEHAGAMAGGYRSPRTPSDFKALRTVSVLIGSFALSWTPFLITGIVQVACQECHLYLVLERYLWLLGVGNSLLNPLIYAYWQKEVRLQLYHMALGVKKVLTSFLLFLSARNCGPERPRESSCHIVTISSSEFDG
Assay: cAMP assays of selected examples (stimulation of cAMP)
Format: cell-based
Conditions: '>200 nM'
Excerpt: Camp Assays of Selected Examples

SMILES	EC50 [nM]
CCc1cnc(OC2CCC(c3nc(CNc4ccc(S(C)(=O)=O)cc4)cs3)CC2)nc1 (centres unmarked)	> 200
Cc1cnc(OC2CCC(n3cc(COc4ccc(S(C)(=O)=O)cc4)nn3)CC2)nc1 (centres unmarked)	> 200
CCc1cnc(OC2CCC(n3cc(COc4ccc(S(C)(=O)=O)cc4)nn3)CC2)nc1 (centres unmarked)	> 200
CS(=O)(=O)c1ccc(OCc2cn(C3CCC(Oc4ncccn4)CC3)nn2)cc1 (centres unmarked)	> 200

Same assay, conditions: <200 nM

SMILES	EC50 [nM]
CCc1cnc(OC2CCC(c3nc(COc4ccc(S(C)(=O)=O)cc4)cs3)CC2)nc1 (centres unmarked)	< 200
CCc1cnc(OC2CCC(c3nc(COc4ccc(-n5cnnn5)cc4)cs3)CC2)nc1 (centres unmarked)	< 200
CCc1cnc(OC2CCC(Oc3c(F)cc(-c4ccc(S(C)(=O)=O)cc4)cc3F)CC2)nc1 (centres unmarked)	< 200
CCc1cnc(OC2CCC(c3nc(COc4ccc(S(C)(=O)=O)cc4F)cs3)CC2)nc1 (centres unmarked)	< 200
